Assay results: patent publication US11339170B1, “Spiropyrrolidine derived antiviral agents” (priority 2021, dated 2022)

Assays:
[1] = biological target: SARS-CoV-2 3CL-protease (Severe acute respiratory syndrome coronavirus 2 (2019-nCoV) (SARS-CoV-2), UniProt P0DTD1); experiment: SARS-CoV-2 3C-like (3CL) protease fluorescence assay (FRET); format: biochemical
[2] = tested on: 229E human corona virus (hCoV); experiment: 229E live virus assay (CPE, ATPlite readout) in MRC-5 cells; format: cell-based, hCoV-229E; conditions: Human coronavirus 229E, MRC5, 144 h, read-out: 229E EC50

SMILES	IC50 [1] [nM]	EC50 [2] [nM]
CC(C)(C)C[C@H](NC(=O)C(=O)NC1CC1)C(=O)N1C[C@]2(C[C@H]1C#N)C(=O)Nc1ccccc12 [Compound 70]	< 100	< 100
[2H]C([2H])([2H])N(C(=O)C(=O)Nc1c(C)cccc1C)[C@@H](CC(C)(C)C)C(=O)N1C[C@]2(C[C@H]1C#N)C(=O)Nc1ccccc12 [Compound 35]	< 100	< 100
CC(C)C[C@@H](C(=O)N1C[C@]2(C[C@H]1C#N)C(=O)Nc1ccccc12)N(C)C(=O)C(=O)C1CC1 [Compound 43]	< 100	< 100
[2H]C([2H])([2H])N(C(=O)C(=O)Nc1ccc(F)c(F)c1)[C@@H](CC(C)(C)C)C(=O)N1C[C@]2(C[C@H]1C#N)C(=O)Nc1ccccc12 [Compound 24]	< 100	< 100
[2H]C([2H])([2H])N(C(=O)C(=O)NC1CCCC1)[C@@H](CC(C)(C)C)C(=O)N1C[C@]2(C[C@H]1C#N)C(=O)Nc1ccccc12 [Compound 31]	< 100	< 100
CC(C)C[C@@H](C(=O)N1C[C@]2(C[C@H]1C#N)C(=O)Nc1ccccc12)N(C)C(=O)C(=O)N(C)c1ccccc1 [Compound 9]	< 100	< 100
[2H]C([2H])([2H])N(C(=O)C(=O)N1CCCCC1)[C@@H](CC(C)(C)C)C(=O)N1C[C@]2(C[C@H]1C#N)C(=O)Nc1ccccc12 [Compound 29]	100 to 1000	< 100
[2H]C([2H])([2H])N(C(=O)C(=O)Nc1ccc(F)c(F)c1)[C@@H](Cc1ccc(F)cc1)C(=O)N1C[C@]2(C[C@H]1C#N)C(=O)Nc1ccccc12 [Compound 46]	< 100	< 100
[2H]C([2H])([2H])N(C(=O)C(=O)Nc1ccc(F)cc1F)[C@@H](CC(C)(C)C)C(=O)N1C[C@]2(C[C@H]1C#N)C(=O)Nc1ccccc12 [Compound 23]	< 100	< 100
[2H]C([2H])([2H])N(C(=O)C(=O)NC1CCC1)[C@@H](CC(C)(C)C)C(=O)N1C[C@]2(C[C@H]1C#N)C(=O)Nc1ccccc12 [Compound 25]	< 100	< 100
[2H]C([2H])([2H])N(C(=O)C(=O)Nc1ccc(F)cc1)[C@@H](CC1CC1)C(=O)N1C[C@]2(C[C@H]1C#N)C(=O)Nc1ccccc12 [Compound 39]	< 100	< 100
CC(C)C[C@@H](C(=O)N1C[C@]2(C[C@H]1C#N)C(=O)Nc1ccccc12)N(C)C(=O)C(=O)Nc1cccc2ccccc12 [Compound 8]	< 100	< 100
CC(C)C[C@@H](C(=O)N1C[C@]2(C[C@H]1C#N)C(=O)Nc1ccccc12)N(C)C(=O)C(=O)Nc1cnc2ccccc2c1 [Compound 15]	< 100	< 100
CC(C)C[C@@H](C(=O)N1C[C@]2(C[C@H]1C#N)C(=O)Nc1ccccc12)N(C)C(=O)C(=O)Nc1ccc2cccnc2c1 [Compound 11]	< 100	< 100
CC(C)C[C@@H](C(=O)N1C[C@]2(C[C@H]1C#N)C(=O)Nc1ccccc12)N(C)C(=O)C(=O)N(C)C1CC1 [Compound 42]	< 100	< 100
CC(C)C[C@@H](C(=O)N1C[C@]2(C[C@H]1C#N)C(=O)Nc1ccccc12)N(C)C(=O)C(=O)Nc1ccc(F)c(F)c1 [Compound 5]	100 to 1000	< 100
CC(C)(C)C[C@H](NC(=O)C(=O)NC1(c2ccc(F)cc2F)CC1)C(=O)N1C[C@]2(C[C@H]1C#N)C(=O)Nc1ccccc12 [Compound 72]	< 100	< 100
CC(C)C[C@@H](C(=O)N1C[C@]2(C[C@H]1C#N)C(=O)Nc1ccccc12)N(C)C(=O)C(=O)Nc1ccc2ccccc2c1 [Compound 7]	< 100	< 100
[2H]C([2H])([2H])N(C(=O)C(=O)NC1CC1)[C@@H](Cc1ccccc1)C(=O)N1C[C@]2(C[C@H]1C#N)C(=O)Nc1ccccc12 [Compound 34]	< 100	< 100
CN(C(=O)C(=O)Nc1ccc(F)cc1)[C@@H](CC(C)(C)C)C(=O)N1C[C@]2(C[C@H]1C#N)C(=O)Nc1ccccc12 [Compound 21]	< 100	< 100
